Values joined by “and” are separate entries in the source; they are usually repeats but may differ in a detail not shown here. Identical values can stand only once. Like-named read-outs stand apart in the source and are kept apart here. Numbered stars: 1 amine (or outer) side, 2 acyl side, 3 side chain; on linkers, the order of the positions; unused ones are H or OH. Square brackets hold non-standard residues; d marks the D form. Peptide text beside a SMILES is read from it. * marks the point of attachment. C18 diacid = O=C(O)CCCCCCCCCCCCCCCCC(=O)*; Phe(4-F) = N[C@@H](Cc1ccc(F)cc1)C(=O)O; γGlu = O=C(O)[C@H](CCC(=O)[*:2])N[*:1]; NMeL = CN[C@@H](CC(C)C)C(=O)O; hSer = N[C@@H](CCO)C(=O)O; Nle = CCCC[C@H](N)C(=O)O; AEEA = NCCOCCOCC(=O)O; Aib = CC(C)(N)C(=O)O
Legend:
hNK2R [1] = target: T1, hNK2R (Homo sapiens, UniProt P21452); assay: IP3 assay (inositol trisphosphate, 3H-myoinositol) in transiently transfected COS-7 cells; format: cell-based; conditions: for EC50: 0.2% ovalbumin buffer
T1 construct: host or cells: COS-7
T1 sequence (P21452 1-398): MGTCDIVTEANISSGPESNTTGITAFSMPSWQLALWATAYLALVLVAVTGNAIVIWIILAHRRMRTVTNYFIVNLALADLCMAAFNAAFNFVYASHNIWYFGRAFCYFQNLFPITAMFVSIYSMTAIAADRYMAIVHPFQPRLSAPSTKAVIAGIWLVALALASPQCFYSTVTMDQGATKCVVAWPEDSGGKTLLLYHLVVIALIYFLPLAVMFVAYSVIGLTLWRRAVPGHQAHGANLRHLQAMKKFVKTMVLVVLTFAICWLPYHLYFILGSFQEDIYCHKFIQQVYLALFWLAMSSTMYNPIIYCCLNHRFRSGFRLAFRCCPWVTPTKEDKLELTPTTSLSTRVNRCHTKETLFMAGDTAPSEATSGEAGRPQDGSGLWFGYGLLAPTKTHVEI
Summary of the method: (§1)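 COS-7 cells were transiently transfected with receptor plasmid and labelled with ³H-myo-inositol. Cells were lysed in formic acid, and ³H-inositol phosphates were captured on SPA YSI beads and counted.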

hNK1R = target: T2, hNK1R (Homo sapiens, UniProt P25103); assay: as above; format: cell-based; conditions: for EC50: 0.2% ovalbumin buffer
T2 construct: host or cells: COS-7
Summary of the method: as §1

hNK3R = target: T3, hNK3R (Homo sapiens, UniProt P29371); assay: as above; format: cell-based; conditions: for EC50: 0.2% ovalbumin buffer, read-out: hNK3, IP3 EC50
T3 construct: host or cells: COS-7
T3 sequence (P29371 1-465): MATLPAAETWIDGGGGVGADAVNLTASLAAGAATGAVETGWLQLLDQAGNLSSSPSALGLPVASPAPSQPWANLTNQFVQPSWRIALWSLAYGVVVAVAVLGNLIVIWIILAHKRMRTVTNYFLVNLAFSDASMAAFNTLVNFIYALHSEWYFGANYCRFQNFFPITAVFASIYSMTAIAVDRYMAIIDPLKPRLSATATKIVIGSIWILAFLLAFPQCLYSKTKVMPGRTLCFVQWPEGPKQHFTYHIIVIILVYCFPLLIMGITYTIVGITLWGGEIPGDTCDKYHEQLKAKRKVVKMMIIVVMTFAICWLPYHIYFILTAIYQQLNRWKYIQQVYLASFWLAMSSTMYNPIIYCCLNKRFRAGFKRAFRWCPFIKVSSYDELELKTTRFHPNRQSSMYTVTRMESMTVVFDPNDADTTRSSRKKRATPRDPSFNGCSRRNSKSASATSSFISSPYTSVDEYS
Summary of the method: as §1

hNK2R [2] = target: T1, hNK2R; assay: 3H-NKA competitive binding on transfected COS-7 cells; conditions: competition with 3H-NKA, 4 h at 4 C
Procedure: (§2) Assays were carried out using COS-7 cells transiently transfected by calcium phosphate transfection with a vector pcDNA3.1(+) encoding one of the indicated receptors (Genscript). Briefly, DNA mixed with CaCl2 (2 M) and TE-buffer (10 mM Tris-HCl, 1 mM EDTA, pH 7.5) was dropwise added to 2×HBS (50 mM HEPES, 280 mM NaCl, 1.5 mM NaH2PO4, pH 7.2) and incubated for 45 min at room temperature (22±2° C.). The mixture and a final concentration of 100 μM Chloroquine were added to the cells and left to incubate for 5 hours at 37° C. under standard cell culture conditions (10% CO2) before changing medium to fresh maintenance medium.
The ^3H-NKA binding assay measures peptide-receptor binding by a competitive principle of receptor binding between radioactively labelled (3H) NKA (tracer) and synthesized peptide ligands on live cells expressing the receptor of interest. Assay solutions used: TKR buffer (50 mM Tris/HCl pH 7.5, 5 mM MnCl2, and 150 mM NaCl), wash buffer (TKR buffer+0.2% w/v OvAlb), binding buffer (wash buffer+0.1 mg/ml Bacitracin), and tracer solution (binding buffer+˜15000 cpm/well ^3H-tracer). The assay was performed on ice the day after transfection.
Briefly, maintenance medium was aspirated, and plates were washed ×1 in cold wash buffer before adding 100 μl cold binding buffer and placing at 4° C. to let plates cool. The cold plates were added indicated peptides (ligand) immediately followed by addition of cold tracer solution (˜15000 cpm/well). Plates were immediately moved to 4° C. and incubated for 4 hours. After incubation, binding was stopped by wash ×2 with cold wash buffer before adding 225 μl Ultima Gold XR. Plates were shaken at medium speed for approximately 30 min and left overnight at room temperature before counting the plates in a MicroBeta plate counter (Perkin Elmer).

hNK2R [3] = target: T1, hNK2R; assay: Hithunter cAMP assay (Gs-coupling) in transfected COS-7 cells; format: cell-based
Procedure: as §2, with “As a secondary measure of agonist-induced G-protein coupled receptor (GPCR) activation cyclin adenosine monophosphate (cAMP) was measured by the Hithunter cAMP-assay from DiscoverX. Assays” for “Assays”
The cAMP-assay takes advantage of the tachykinin receptors' ability to induce production of the cAMP second messenger upon agonist (ligand) binding on receptor expressing cells. Production of cAMP stems from receptor coupling to Gs-protein although coupling to Gq-protein (IP3-production) is considered the primary signalling mechanism by tachykinin receptors.
The assay was performed the day after transfection. Briefly, maintenance medium was aspirated, and plates were washed ×1 in HBSS before adding assay buffer (HBSS+1 mM IBMX), pre-incubated for 30 min at 37° C. followed by 15 min incubation with agonist (ligand) at 37° C. After incubation, plates were subjected to cell lysis and anti-cAMP-antibody incubation as described by manufacturer. Luminescence was measured with EnVision Multimode Plate Reader from Perkin Elmer.

[4] = COS-7 cells, figure legends: percent of 10^-6 M NKA

T2 sequence (P25103 whole entry): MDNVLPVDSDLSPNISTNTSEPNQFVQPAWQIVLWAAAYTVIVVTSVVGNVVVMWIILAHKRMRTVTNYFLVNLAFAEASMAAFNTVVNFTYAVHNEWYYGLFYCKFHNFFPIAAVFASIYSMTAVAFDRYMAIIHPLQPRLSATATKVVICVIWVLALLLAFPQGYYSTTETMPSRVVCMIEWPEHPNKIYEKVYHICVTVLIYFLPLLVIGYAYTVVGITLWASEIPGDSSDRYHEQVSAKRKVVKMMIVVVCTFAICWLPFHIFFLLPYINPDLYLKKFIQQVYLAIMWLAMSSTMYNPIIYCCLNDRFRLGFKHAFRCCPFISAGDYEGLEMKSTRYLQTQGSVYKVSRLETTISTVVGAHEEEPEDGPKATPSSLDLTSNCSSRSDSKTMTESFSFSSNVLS

Compound	EC50 (hNK2R [1]; COS-7 cells) [nM]	hNK2R, IP3 Efficacy (hNK2R [1]; [4])	EC50 (hNK1R; COS-7 cells)	hNK1R, IP3 Efficacy (hNK1R; [4])	EC50 (hNK3R; COS-7 cells) [nM]	hNK3, IP3 Efficacy (hNK3R; [4])	EC50 (hNK2R [2]) [nM]	EC50 (hNK2R [3]; COS-7 cells) [nM]	hNK2R, cAMP Efficacy (hNK2R [3]; COS-7 cells) [%]	hNK2R, IP3 Efficacy (hNK2R [1]) [%]	hNK1R, IP3 Efficacy (hNK1R) [%]	hNK3, IP3 Efficacy (hNK3R) [%]	hNK2R, cAMP Efficacy (hNK2R [3]) [%]	Gs activation (cAMP), in words (hNK2R [3])
CC(C)C[C@@H](C(=O)N[C@@H](Cc1ccc(F)cc1)C(N)=O)N(C)C(=O)CNC(=O)[C@@H](NC(=O)[C@H](Cc1ccc(O)cc1)NC(=O)[C@H](CCCCN)NC(=O)[C@H](CC(=O)O)NC(=O)COCCOCCNC(=O)COCCOCCNC(=O)CC[C@H](NC(=O)CCCCCCCCCCCCCCCCC(=O)O)C(=O)O)C(C)C [compound 369, *Asp;Lys;Tyr;Val;Gly;NmLeu;4-F-Phe;NH2] ({C18 diacid-γGlu-AEEA-AEEA}-DKYVG[NMeL][Phe(4-F)]-NH2)	1.7	90%	~250 nM	40%	~190	25%	76	54	80					
COCC[C@H](NC(=O)[C@H](CC(C)C)NC(=O)C(C)(C)NC(=O)[C@@H](NC(=O)[C@H](Cc1ccc(O)cc1)NC(=O)[C@H](CCCCN)NC(=O)[C@H](CC(=O)O)NC(=O)COCCOCCNC(=O)COCCOCCNC(=O)CC[C@H](NC(=O)CCCCCCCCCCCCCCCCC(=O)O)C(=O)O)C(C)C)C(N)=O [compound 394, *Asp;Lys;Tyr;Val;Aib;Leu;Metox;NH2] ({C18 diacid-γGlu-AEEA-AEEA}-DKYV[Aib]L[hSer](Me)-NH2)	5	90%	~940 nM	35%		0%	~108	306	100					
CCCC[C@H](NC(=O)[C@H](CC(C)C)NC(=O)C(C)(C)NC(=O)[C@@H](NC(=O)[C@H](Cc1ccc(O)cc1)NC(=O)[C@H](CCCCN)NC(=O)[C@H](CC(=O)O)NC(=O)COCCOCCNC(=O)COCCOCCNC(=O)CC[C@H](NC(=O)CCCCCCCCCCCCCCCCC(=O)O)C(=O)O)C(C)C)C(N)=O [compound 395, *Asp;Lys;Tyr;Val;Aib;Leu;Nle;NH2] ({C18 diacid-γGlu-AEEA-AEEA}-DKYV[Aib]L[Nle]-NH2)	9						~104			68	0	0	0	
CCCC[C@H](NC(=O)[C@H](CC(C)C)N(C)C(=O)CNC(=O)[C@@H](NC(=O)[C@H](Cc1ccc(O)cc1)NC(=O)[C@H](CCCCN)NC(=O)[C@H](CCC(=O)O)NC(=O)COCCOCCNC(=O)COCCOCCNC(=O)CC[C@H](NC(=O)CCCCCCCCCCCCCCCCC(=O)O)C(=O)O)C(C)C)C(N)=O [compound 336, *Glu;Lys;Tyr;Val;Gly;NmLeu;Nle;NH2] ({C18 diacid-γGlu-AEEA-AEEA}-EKYVG[NMeL][Nle]-NH2)	4	80% and 75%	~26000 nM and ~27000 nM	30% and 25%	~3800	10% and 0%	80		0					does not activate Gs
COCC[C@H](NC(=O)[C@H](CC(C)C)N(C)C(=O)CNC(=O)[C@@H](NC(=O)[C@H](Cc1ccc(O)cc1)NC(=O)[C@H](CCCCN)NC(=O)[C@H](CC(=O)O)NC(=O)COCCOCCNC(=O)COCCOCCNC(=O)CC[C@H](NC(=O)CCCCCCCCCCCCCCCCC(=O)O)C(=O)O)[C@@H](C)O)C(N)=O [compound 366, *Asp;Lys;Tyr;Thr;Gly;NmLeu;Metox;NH2] ({C18 diacid-γGlu-AEEA-AEEA}-DKYTG[NMeL][hSer](Me)-NH2)	12	100%		0%		0%	~104	~120	80					
CC(C)C[C@@H](C(=O)N[C@@H](Cc1ccccc1)C(N)=O)N(C)C(=O)CNC(=O)[C@@H](NC(=O)[C@H](Cc1ccc(O)cc1)NC(=O)[C@H](CCCCN)NC(=O)[C@H](CC(=O)O)NC(=O)COCCOCCNC(=O)COCCOCCNC(=O)CC[C@H](NC(=O)CCCCCCCCCCCCCCCCC(=O)O)C(=O)O)C(C)C [compound 353, *Asp;Lys;Tyr;Val;Gly;NmLeu;Phe;NH2] ({C18 diacid-γGlu-AEEA-AEEA}-DKYVG[NMeL]F-NH2)	2.5	90%		20%		0%	27	~1.3	50					
CSCC[C@H](NC(=O)[C@H](CC(C)C)N(C)C(=O)CNC(=O)[C@@H](NC(=O)[C@H](Cc1ccc(O)cc1)NC(=O)[C@H](CCCCN)NC(=O)[C@H](CC(=O)O)NC(=O)COCCOCCNC(=O)COCCOCCNC(=O)CC[C@H](NC(=O)CCCCCCCCCCCCCCCCC(=O)O)C(=O)O)C(C)C)C(N)=O [compound 316, *Asp;Lys;Tyr;Val;Gly;NmLeu;Met;NH2] ({C18 diacid-γGlu-AEEA-AEEA}-DKYVG[NMeL]M-NH2)	12	120%	20 nM	100%	~160	50%	41	20	100					

— patent publication US20230406883A1, “COMPOUNDS AND THEIR USE IN TREATMENT OF TACHYKININ RECEPTOR MEDIATED DISORDERS” (Embark Biotech ApS, priority 2020, published 2023)
